Columns and labels:
Diaitaria ciliaris (Di) = assay: Test Example 3: herbicidal effects by upland field foliage treatment; format: in vivo; parameters: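 grade of growth control; 5 = at least 90%; 4 = 70 to 90%; 3 = 50 to 70%; 2 = 30 to 50%; 1 = 10 to 30%; 0 = under 10%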
In short: (§1)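 Two-week-old greenhouse seedlings, raised in sand-filled pots (120 cm^2) with seed covered by soil, receive a foliar application. Effects are then evaluated by standard grades 14 days later, plants remaining in the greenhouse meanwhile.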

barnyardgrass (Ec) [1] = assay: as above; format: in vivo; parameters: scale not given here
In short: as §1

[2] = tested on: common lambsquarters (Ch); assay: as above; format: in vivo; parameters: scale not given here
In short: as §1

pale smartweed (Po) [3] = assay: as above; format: in vivo; parameters: scale not given here
In short: as §1

rice flatsedge (Ci) [4] = assay: as above; format: in vivo; parameters: scale not given here
In short: as §1

slender amaranth (Am) [5] = assay: as above; format: in vivo; parameters: scale not given here
In short: as §1

wheat (Tr) = assay: Test Example 9: crop plant selectivity by upland field foliage treatment (wheat), phytotoxicity; conditions: dose 1.6 g ai/10a, 14th day after treatment;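 also: grade of crop injury; 5 = at least 90%; 4 = 70 to 90%; 3 = 50 to 70%; 2 = 30 to 50%; 1 = 10 to 30%; 0 = under 10%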
In short: (§2)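 Read-out: weed control and wheat injury, rated by a defined scoring standard 14 days after foliar application.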

China jute (Ab) [6] = assay: Test Example 9: crop plant selectivity by upland field foliage treatment (wheat), herbicidal effects; format: in vivo; parameters: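 grade of growth control; 5 = at least 90%; 4 = 70 to 90%; 3 = 50 to 70%; 2 = 30 to 50%; 1 = 10 to 30%; 0 = under 10%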; conditions: dose 1.6 g ai/10a, 14th day after treatment
In short: as §2

[7] = tested on: common lambsquarters (Ch); assay: as above; format: in vivo; parameters: scale not given here; conditions: dose 1.6 g ai/10a, 14th day after treatment
In short: as §2

pale smartweed (Po) [8] = assay: as above; format: in vivo; parameters: scale not given here; conditions: dose 1.6 g ai/10a, 14th day after treatment
In short: as §2

slender amaranth (Am) [9] = assay: as above; format: in vivo; parameters: scale not given here; conditions: dose 1.6 g ai/10a, 14th day after treatment
In short: as §2

corn (Ze) = assay: Test Example 11: crop plant selectivity by upland field foliage treatment (corn), phytotoxicity; conditions: dose 1.6 g ai/10a
Description: (§3) (Test on Crop Plant Selectivity by Upland Field Foliage Treatment)
(§4) In a plastic pot (surface area: 600 cm^2) filled with sand, corn (Ze), pale smartweed (Po), slender amaranth (Am), common lambsquarters (Ch) and China jute (Ab) were sown and cultured in a green house for 2 weeks. […] The plants were then cultured in a green house, and the evaluation of the herbicidal effects and phytotoxicity was conducted on the 14th day after the treatment in accordance with the standards as identified in Table 47.

China jute (Ab) [10] = assay: Test Example 11: crop plant selectivity by upland field foliage treatment (corn), herbicidal effects; format: in vivo; parameters: scale not given here; conditions: dose 1.6 g ai/10a
Description: as §3, §4

[11] = tested on: common lambsquarters (Ch); assay: as above; format: in vivo; parameters: scale not given here; conditions: dose 1.6 g ai/10a
Description: as §3, §4

pale smartweed (Po) [12] = assay: as above; format: in vivo; parameters: scale not given here; conditions: dose 1.6 g ai/10a
Description: as §3, §4

slender amaranth (Am) [13] = assay: as above; format: in vivo; parameters: scale not given here; conditions: dose 1.6 g ai/10a
Description: as §3, §4

barnyardgrass (Ec) [14] = assay: Test Example 1: herbicidal effects by paddy field soil treatment; format: in vivo; conditions: 100 g of the active ingredient per 10 ares, 21st day after the application, index 0-5 of Table 47;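 also: grade of growth control; 5 = at least 90%; 4 = 70 to 90%; 3 = 50 to 70%; 2 = 30 to 50%; 1 = 10 to 30%; 0 = under 10%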
In short: (§5)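 Flooded paddy-soil pots (3 cm water) sown after puddling/leveling; treatment 100 g a.i./10 ares; greenhouse culture; herbicidal effect rated visually on a scoring scale at 21 d post-application.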

bulrush (Sc) = assay: as above; format: in vivo; conditions: 100 g of the active ingredient per 10 ares, 21st day after the application, index 0-5 of Table 47;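 also: grade of growth control; 5 = at least 90%; 4 = 70 to 90%; 3 = 50 to 70%; 2 = 30 to 50%; 1 = 10 to 30%; 0 = under 10%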
In short: as §5

monochoria (Mo) = assay: as above; format: in vivo; conditions: 100 g of the active ingredient per 10 ares, 21st day after the application, index 0-5 of Table 47;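 also: grade of growth control; 5 = at least 90%; 4 = 70 to 90%; 3 = 50 to 70%; 2 = 30 to 50%; 1 = 10 to 30%; 0 = under 10%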
In short: as §5

Digitaria ciliaris (Di) = assay: Test Example 2: herbicidal effects by upland field soil treatment; format: in vivo; conditions: 100 g of the active ingredient per 10 ares, 21st day after the application, index 0-5 of Table 47
Description: (§6) (Test on Herbicidal Effects by Upland Field Soil Treatment)

barnyardgrass (Ec) [15] = assay: as above; format: in vivo; conditions: 100 g of the active ingredient per 10 ares, 21st day after the application, index 0-5 of Table 47
Description: as §6

[16] = tested on: common lambsquarters (Ch); assay: as above; format: in vivo; conditions: 100 g of the active ingredient per 10 ares, 21st day after the application, index 0-5 of Table 47
Description: as §6

pale smartweed (Po) [17] = assay: as above; format: in vivo; conditions: 100 g of the active ingredient per 10 ares, 21st day after the application, index 0-5 of Table 47
Description: as §6

rice flatsedge (Ci) [18] = assay: as above; format: in vivo; conditions: 100 g of the active ingredient per 10 ares, 21st day after the application, index 0-5 of Table 47
Description: as §6

slender amaranth (Am) [19] = assay: as above; format: in vivo; conditions: 100 g of the active ingredient per 10 ares, 21st day after the application, index 0-5 of Table 47
Description: as §6

[20] = 100 g of the active ingredient per 10 ares, evaluated on the 14th day after treatment
[21] = upland field foliage treatment, 14th day after treatment
[22] = upland field foliage treatment (corn test), 14th day after treatment
[23] = 100 g active ingredient per 10 ares, evaluated 14th day after treatment

SMILES	Herbicidal effects Di (Diaitaria ciliaris (Di); [20])	Herbicidal effects Ec (barnyardgrass (Ec) [1]; [20])	Herbicidal effects Ch [2, 20]	Herbicidal effects Po (pale smartweed (Po) [3]; [20])	Herbicidal effects Ci (rice flatsedge (Ci) [4]; [20])	Herbicidal effects Am (slender amaranth (Am) [5]; [20])	Phytotoxicity Tr (wheat (Tr))	Herbicidal effects Ab (China jute (Ab) [6])	Herbicidal effects Ch [7]	Herbicidal effects Po (pale smartweed (Po) [8])	Herbicidal effects Am (slender amaranth (Am) [9])	Phytotoxicity Ze (corn (Ze); [21])	Herbicidal effects Ab (China jute (Ab) [10]; [22])	Herbicidal effects Ch [11, 22]	Herbicidal effects Po (pale smartweed (Po) [12]; [22])	Herbicidal effects Am (slender amaranth (Am) [13]; [22])	Herbicidal effects Ec (barnyardgrass (Ec) [14])	Herbicidal effects Sc (bulrush (Sc))	Herbicidal effects Mo (monochoria (Mo))	Herbicidal effects Di (Digitaria ciliaris (Di))	other results
CCOC(=O)C(CC)Sc1cc(-c2ccc(C(F)(F)F)n(C)c2=O)c(Cl)cc1Cl (racemic) [1-125]	5	5	5	5	5	5	2	5	5	5	5	2	5	5	5	5					
COCOc1cc(-c2ccc(C(F)(F)F)n(C)c2=O)c(Cl)cc1Cl [1-38]	5	5	5	5	5	5	2	5	5	5	5	2	5	5	5	5	5	5	5	5	Herbicidal effects Ec (barnyardgrass (Ec) [15]): 5; Herbicidal effects Ch [16]: 5; Herbicidal effects Po (pale smartweed (Po) [17]): 5; Herbicidal effects Ci (rice flatsedge (Ci) [18]): 5; Herbicidal effects Am (slender amaranth (Am) [19]): 5
C#CCNc1cc(-c2ccc(C(F)(F)F)n(C)c2=O)c(F)cc1Cl [1-62]	5	5	5	5	5	5	2	5	5	5	5	2	5	5	5	5	5	5	5	5	Herbicidal effects Ec (barnyardgrass (Ec) [15]): 5; Herbicidal effects Ch [16]: 5; Herbicidal effects Po (pale smartweed (Po) [17]): 5; Herbicidal effects Ci (rice flatsedge (Ci) [18]): 5; Herbicidal effects Am (slender amaranth (Am) [19]): 5
C#CCOc1cc(-c2ccc(C(F)(F)F)n(C)c2=O)ccc1Cl [1-106]	5	5	5	5	5	5	2	5	5	5	5	2	5	5	5	5	5	5	5	5	Herbicidal effects Ec (barnyardgrass (Ec) [15]): 5; Herbicidal effects Ch [16]: 5; Herbicidal effects Po (pale smartweed (Po) [17]): 5; Herbicidal effects Ci (rice flatsedge (Ci) [18]): 5; Herbicidal effects Am (slender amaranth (Am) [19]): 5
Cn1c(C(F)(F)F)ccc(-c2cc(C(=O)OCCBr)c(Cl)cc2F)c1=O [1-134]	5	5	5	5	5	5	2	5	5	5	5	2	5	5	5	5	5	5	5	5	Herbicidal effects Ec (barnyardgrass (Ec) [15]): 5; Herbicidal effects Ch [16]: 5; Herbicidal effects Po (pale smartweed (Po) [17]): 5; Herbicidal effects Ci (rice flatsedge (Ci) [18]): 5; Herbicidal effects Am (slender amaranth (Am) [19]): 5
Cn1c(C(F)(F)F)ccc(-c2cc(OC3CCOC3)c(Cl)cc2F)c1=O (centres unmarked) [1-162]	5	5	5	5	5	5	2	5	5	5	5	2	5	5	5	5	5	5	5	5	Herbicidal effects Ec (barnyardgrass (Ec) [15]): 5; Herbicidal effects Ch [16]: 5; Herbicidal effects Po (pale smartweed (Po) [17]): 5; Herbicidal effects Ci (rice flatsedge (Ci) [18]): 5; Herbicidal effects Am (slender amaranth (Am) [19]): 5
CCOC(=O)CN1C(=O)COc2cc(F)c(-c3ccc(C(F)(F)F)n(C)c3=O)cc21 [Compound 2-18]							2	5	5	5	5	2	5	5	5	5	5	5	5		
CC(C)OCc1cc2c(-c3ccc(C(F)(F)F)n(C)c3=O)c(F)cc(Cl)c2o1 [Compound 4-33]							2	5	5	5	5						5	5	5		Herbicidal effects Di (Diaitaria ciliaris (Di); [23]): 5; Herbicidal effects Ec (barnyardgrass (Ec) [1]; [23]): 5; Herbicidal effects Ch [2, 23]: 5; Herbicidal effects Po (pale smartweed (Po) [3]; [23]): 5; Herbicidal effects Ci (rice flatsedge (Ci) [4]; [23]): 5; Herbicidal effects Am (slender amaranth (Am) [5]; [23]): 5; Phytotoxicity Ze (corn (Ze); corn, foliage treatment, evaluated on 14th day after treatment, index per Table 47): 2; Herbicidal effects Ab (China jute (Ab) [10]; China jute, foliage treatment, evaluated on 14th day after treatment, index per Table 47): 5; Herbicidal effects Ch ([11]; common lambsquarters, foliage treatment, evaluated on 14th day after treatment, index per Table 47): 5; Herbicidal effects Po (pale smartweed (Po) [12]; pale smartweed, foliage treatment, evaluated on 14th day after treatment, index per Table 47): 5; Herbicidal effects Am (slender amaranth (Am) [13]; slender amaranth, foliage treatment, evaluated on 14th day after treatment, index per Table 47): 5

Source: patent publication US6472348B1, “Pyridone derivatives and herbicides” (Kumiai Chemical Industry Co., Ltd., priority 1996, dated 2002)
